Laboratory results reported in patent publication US20240299303A1, “NANOSTRUCTURE OR MICROSTRUCTURE AND METHOD FOR PRODUCING SAME” (The University of Tokyo, priority 2021, published 2024).

Experiments:
Type in all cases: physicochemical
[1] = Introduction of compounds into nanosheets, absorbance of supernatant after centrifugation; conditions: for introduction amount relative to the weight of the nanosheets: Examples 4-8; for introduction amount relative to the weight of the nanosheets / Weight of introduced compound/weight of nanosheets: crosslinked β-cyclodextrin nanosheets; for Weight of introduced compound/weight of nanosheets: Table 1; for Concentration of introduced compound before introduction: in nanosheet dispersion, defined in consideration of dilution with moisture in the dispersion; for Concentration of introduced compound before introduction / Concentration of introduced compound after introduction: nanosheets 43 mg/mL (Examples 4-6) or 17 mg/mL (Examples 7-8); for amount of compound introduced into the nanosheets (reduction in concentration before and after introduction): nanosheets 43 mg/mL (Examples 4-6) or 17 mg/mL (Example 8); for Concentration of introduced compound after introduction: supernatant after shaking at room temperature 48 hours and centrifugation, absorbance
Description: (§1) 700 Microliters of an aqueous solution (300 μg/mL) of 5-fluorouracil was added to 500 mg of the nanosheet dispersion-1 obtained in Example 1, and the mixture was shaken at room temperature for 48 hours. The nanosheet dispersion having introduced thereinto 5-fluorouracil was centrifuged (at 12,000 rpm for 10 minutes), and the supernatant liquid was collected.
The introduction amount of 5-fluorouracil was determined by the same process as that of Example 4 except that a concentration-absorbance calibration curve was produced at a predetermined wavelength (λ=270 nm).
as §1, with “(100” for “(300”, “hydrocortisone” for “5-fluorouracil”
The introduction amount of hydrocortisone was determined by the same process as that of Example 4 except that a concentration-absorbance calibration curve was produced at a predetermined wavelength (λ250 nm).
as §1, with “500” for “700”, “(30” for “(300”, “betamethasone” for “5-fluorouracil”, “100” for “500”
The introduction amount of betamethasone was determined by the same process as that of Example 4 except that a concentration-absorbance calibration curve was produced at a predetermined wavelength (λ=250 nm).
as §1, with “500” for “700”, “(30” for “(300”, “menadione” for “5-fluorouracil”, “100” for “500”
The introduction amount of menadione was determined by the same process as that of Example 4 except that a concentration-absorbance calibration curve was produced at a predetermined wavelength (λ=250 nm).

[2] = Introduction of rhodamine B into crosslinked nanosheets (fluorescence microscope); conditions: rhodamine B 100 μg/mL aqueous solution, shaken room temperature 24 hours, diluted fivefold
Description: 900 Microliters of an aqueous solution (100 μg/mL) of rhodamine B was added to 50 mg of the nanosheet dispersion-1 (sample IT-162) obtained in Example 1, and the mixture was shaken at room temperature for 24 hours. […] The results are shown in FIG. 10(A) and FIG. 10(B), respectively. The crystal structures of nanosheets were able to be observed with the phase-contrast microscope.

[3] = Introduction of rhodamine B into uncrosslinked nanosheets (fluorescence microscope); conditions: rhodamine B 1,000 μg/mL aqueous solution, shaken room temperature 24 hours
Description: 100 Microliters of an aqueous solution (1,000 μg/mL) of rhodamine B was added to 90 mL of the uncrosslinked nanosheet dispersion (sample IT-142) obtained in Comparative Example 1, and the mixture was shaken at room temperature for 24 hours. […] The results are shown in FIG. 11(A) and FIG. 11(B), respectively. The crystal structures of nanosheets were able to be observed with the phase-contrast microscope.

[4] = Introduction of molecules into crosslinked body of porous microstructural body (UV-visible, supernatant); conditions: adsorption from aqueous dispersion; Example 10
Description: A low-molecular weight compound was added, and caused to adsorb, to the aqueous dispersion of the porous γ-PPG4k-Plate crosslinked body, and then the porous γ-PPG4k-Plate crosslinked body was sedimented by centrifugation. The concentration of the low-molecular weight compound present in the supernatant liquid obtained at that time was determined by a UV-visible spectral method. Thus, the amount of the low-molecular weight compound adsorbing to the porous γ-PPG4k-Plate crosslinked body was determined.

[5] = Introduction of molecules into porous nanosheet crosslinked body (UV-visible, supernatant); conditions: adsorption from aqueous dispersion; Example 9
Description: A low-molecular weight compound was added, and caused to adsorb, to the aqueous dispersion of the porous γ-plu108-NS crosslinked body, and then the porous γ-plu108-NS crosslinked body was sedimented by centrifugation. The concentration of the low-molecular weight compound present in the supernatant liquid obtained at that time was determined by a UV-visible spectral method. Thus, the amount of the low-molecular weight compound adsorbing to the porous γ-plu108-NS crosslinked body was determined.

| SMILES | introduction amount relative to the weight of the nanosheets [1] [wt %] | Weight of introduced compound/weight of nanosheets [1] [%] | Concentration of introduced compound before introduction [1] [ng/mL] | amount of compound introduced into the nanosheets (reduction in concentration before and after introduction) [1] [µg/mL] | Concentration of introduced compound after introduction [1] [ng/mL] | introduction into the porous γ-PPG4k-Plate crosslinked body [4] | further results |
| --- | --- | --- | --- | --- | --- | --- | --- |
| CCN(CC)c1ccc2c(-c3ccccc3C(=O)O)c3ccc(=[N+](CC)CC)cc-3oc2c1.[Cl-] [rhodamine B] | – | – | – | – | – | not introduced | fluorescent coloring in the crystal structures (rhodamine B introduction) [2]: fluorescent coloring was observed; fluorescent coloring in the crystal structures (rhodamine B introduction) [3]: almost no fluorescent coloring was observed |
| O=c1ccc2ccccc2o1 [coumarin] | – | – | – | – | – | – | ratio of the weight of the low-molecular weight compound to the total sum of the weights of the compound and the porous γ-plu108-NS crosslinked body [5]: 0.5 wt %; ratio of the weight of the low-molecular weight compound to the total sum of the weights of the compound and the porous γ-PPG4k-Plate crosslinked body [4]: 0.6 wt % |
| O=C(O)c1cccnc1 [nicotinic acid] | – | – | – | – | – | not introduced | – |
| CCCCC/C=C\C/C=C\CCCCCCCC(=O)O [linoleic acid] | – | – | – | – | – | – | ratio of the weight of the low-molecular weight compound to the total sum of the weights of the compound and the porous γ-plu108-NS crosslinked body [5]: 5.3 wt %; ratio of the weight of the low-molecular weight compound to the total sum of the weights of the compound and the porous γ-PPG4k-Plate crosslinked body [4]: 0.9 wt % |
| O=C(O)CCCC[C@@H]1SC[C@@H]2NC(=O)N[C@@H]21 [biotin] | – | – | – | – | – | not introduced | – |
| O=c1[nH]cc(F)c(=O)[nH]1 [5-Fluorouracil, 5-fluorouracil] | 0.10 | 0.10 | 183000 | 45 | 138000 | – | – |

Now from value to compound, other results behind:

| introduction amount relative to the weight of the nanosheets [1] [wt %] | Weight of introduced compound/weight of nanosheets [1] [%] | Concentration of introduced compound before introduction [1] [ng/mL] | amount of compound introduced into the nanosheets (reduction in concentration before and after introduction) [1] [µg/mL] | Concentration of introduced compound after introduction [1] [ng/mL] | introduction into the porous γ-PPG4k-Plate crosslinked body [4] | SMILES | further results |
| --- | --- | --- | --- | --- | --- | --- | --- |
| 0.09 | 0.09 | 25000 | 15 | 10000 | – | CC1=CC(=O)c2ccccc2C1=O [Menadione, menadione] | – |
| – | – | – | – | – | not introduced | CCN[C@H]1C[C@H](C)S(=O)(=O)c2sc(S(N)(=O)=O)cc21 [dorzolamide] | – |
| 0.08 | 0.08 | 61000 | 35 | 26000 | – | C[C@]12CCC(=O)C=C1CC[C@@H]1[C@@H]2[C@@H](O)C[C@@]2(C)[C@H]1CC[C@]2(O)C(=O)CO [Hydrocortisone, hydrocortisone] | – |
